# Laboratory results as given in patent US8119633B2, “Substituted sulfonamide compounds” (Gruenenthal GmbH, priority 2007, dated 2012).
# Experiments:
# [1] = biological target: T1, human μ-opiate receptor (Homo sapiens, UniProt P35372); assay: Affinity for the human μ-opiate receptor ([3H]-naloxone displacement, SPA); details: test substance 1 μmol/l; inhibition of specific [3H]-naloxone binding; CHO-K1 receptor membrane preparation; read-out: μ-Opioid receptor [1 μM] % inhibition
# T1 construct: purchased PerkinElmer Life Sciences, Zaventem, Belgium RB-HOM; host or cells: CHO-K1 cells (membrane preparation)
# T1 sequence (P35372 whole entry): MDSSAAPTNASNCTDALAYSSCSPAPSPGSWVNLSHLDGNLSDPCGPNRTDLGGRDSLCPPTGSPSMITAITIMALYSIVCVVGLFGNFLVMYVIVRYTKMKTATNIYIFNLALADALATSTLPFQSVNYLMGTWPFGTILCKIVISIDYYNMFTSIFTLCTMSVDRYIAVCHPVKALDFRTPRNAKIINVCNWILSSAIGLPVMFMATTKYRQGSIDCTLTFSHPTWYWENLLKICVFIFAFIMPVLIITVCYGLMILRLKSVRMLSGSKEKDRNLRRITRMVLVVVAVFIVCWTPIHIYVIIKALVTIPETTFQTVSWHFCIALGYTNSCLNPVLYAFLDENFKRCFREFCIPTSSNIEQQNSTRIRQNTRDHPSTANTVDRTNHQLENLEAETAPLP
# Outline: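 Membranes from CHO-K1 cells expressing human μ-opiate receptor were incubated 90 min at room temperature with 1 nmol/l [3H]-naloxone and WGA-SPA beads in 50 mmol/l Tris-HCl with 0.06% BSA; non-specific binding was defined with 100 μmol/l naloxone. Percent inhibition was measured at 1 μmol/l, IC50 was derived from concentration series, and Ki was obtained by Cheng-Prusoff.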
# [2] = biological target: T2, human bradykinin receptor 1 (B1R) (Homo sapiens, UniProt P46663); assay: Functional study on the bradykinin receptor 1 (B1R), human: FLIPR Ca2+ influx assay; format: cell-based; details: test substance 10 μM; CHO K1 cells transfected with human B1R; Lys-Des-Arg9-bradykinin at EC80; Ca2+ influx (Fluo-4, FLIPR); read-out: B1R antagonism, human [10 μM] % inhibition
# T2 construct: expressed in transfected cells; host or cells: CHO K1 cells
# T2 sequence (P46663 1-353): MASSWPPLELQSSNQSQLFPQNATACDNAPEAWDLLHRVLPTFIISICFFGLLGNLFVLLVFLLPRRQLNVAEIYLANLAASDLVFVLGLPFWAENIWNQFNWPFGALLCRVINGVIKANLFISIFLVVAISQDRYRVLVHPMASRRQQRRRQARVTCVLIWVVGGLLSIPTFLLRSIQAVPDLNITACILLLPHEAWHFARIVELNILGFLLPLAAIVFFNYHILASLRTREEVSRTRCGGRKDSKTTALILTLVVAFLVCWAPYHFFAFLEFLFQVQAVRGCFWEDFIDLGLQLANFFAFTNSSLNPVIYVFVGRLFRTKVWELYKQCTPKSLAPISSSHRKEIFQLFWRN
# Outline: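 CHO K1 cells stably expressing human B1R were loaded with Fluo-4, and Ca2+ fluorescence was read on FLIPR (ex 488/em 540 nm). Compound was added first (10 μM for % activation against Lys-Des-Arg9-bradykinin ≥0.5 nM). After 10-20 min, Lys-Des-Arg9-bradykinin was added at EC80 for % inhibition; IC50 came from concentration series, n=2-3, N≥2.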
# [3] = biological target: T3, bradykinin receptor 1 (B1R) of the rat (Rattus norvegicus, UniProt P97583); assay: Functional study on the bradykinin receptor 1 (B1R), rat: FLIPR Ca2+ influx assay; format: cell-based; details: test substance 10 μM; CHO K1 cells transfected with rat B1R; Des-Arg9-bradykinin at EC80; Ca2+ influx (Fluo-4, FLIPR); read-out: B1R antagonism, rat [10 μM] % inhibition
# T3 construct: expressed in transfected cells; host or cells: CHO K1 cells
# T3 sequence (P97583 1-337): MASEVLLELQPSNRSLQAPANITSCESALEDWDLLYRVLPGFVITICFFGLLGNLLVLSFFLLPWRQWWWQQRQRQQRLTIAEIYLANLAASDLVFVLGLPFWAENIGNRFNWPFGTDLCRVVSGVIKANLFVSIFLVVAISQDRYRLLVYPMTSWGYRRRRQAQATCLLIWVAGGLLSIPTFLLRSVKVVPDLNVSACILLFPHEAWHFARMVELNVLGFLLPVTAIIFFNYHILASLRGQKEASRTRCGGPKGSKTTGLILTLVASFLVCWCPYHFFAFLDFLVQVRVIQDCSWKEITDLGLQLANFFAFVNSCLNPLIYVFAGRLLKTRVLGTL
# Outline: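 CHO K1 cells stably expressing rat B1R, Fluo-4-loaded, read on FLIPR (ex 488/em 540 nm, peak fluorescence). Test substances added first (agonism vs 10 μM Des-Arg9-bradykinin), then after 10-20 min Des-Arg9-bradykinin at EC80; % inhibition and IC50 from concentration series, n=2-3, N≥2.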
smiles,measurement,setting,value
"O=C(CC1C(=O)Nc2ccccc2N1S(=O)(=O)c1ccc(Cl)c(Cl)c1)NC1CCC(C(c2ccccc2)N2CCOCC2)CC1 (stereo not drawn) [Example 54, 2-[1-(3,4-dichloro-benzenesulfonyl)-3-oxo-1,2,3,4-tetrahydro-quinoxalin-2-yl]-N-[4-(morpholin-4-yl-phenyl-methyl)-cyclohexyl]-acetamide]",inhibition at 1 µM,[1],12%
same,inhibition at 10 µM,[2],105%
same,inhibition at 10 µM,[3],44%
"O=C(CC1CCCCN1S(=O)(=O)c1ccc(Cl)c(Cl)c1)N1CCC(C(c2ccccc2)N2CCOCC2)CC1 (stereo not drawn) [Example 89, 2-[1-(3,4-dichloro-benzenesulfonyl)-piperidin-2-yl]-1-[4-(morpholin-4-yl-phenylmethyl)-piperidin-1-yl]-ethanone]",inhibition at 1 µM,[1],8.5%
same,inhibition at 10 µM,[2],16.4%
same,inhibition at 10 µM,[3],26%
"O=C(CC1CCCN1S(=O)(=O)c1ccc(Cl)c(Cl)c1)N1CCC(C(c2ccccc2)N2CCOCC2)CC1 (stereo not drawn) [Example 80, 2-[1-(3,4-dichloro-benzenesulfonyl)-pyrrolidin-2-yl]-1-[4-(morpholin-4-yl-phenylmethyl)-piperidin-1-yl]-ethanone]",inhibition at 1 µM,[1],7%
same,inhibition at 10 µM,[2],16.7%
same,inhibition at 10 µM,[3],15%
"O=C(CC1CCCCN1S(=O)(=O)c1ccc(Cl)c(Cl)c1)NCC1CCC(C(c2ccccc2)N2CCOCC2)CC1 (stereo not drawn) [Example 82, 2-[1-(3,4-dichloro-benzenesulfonyl)-piperidin-2-yl]-N-[4-(morpholin-4-yl-phenylmethyl)-cyclohexylmethyl]-acetamide]",inhibition at 1 µM,[1],23%
same,inhibition at 10 µM,[2],23.5%
same,inhibition at 10 µM,[3],7%
"CN1CCN(C(c2cccc(F)c2)C2CCN(C(=O)CC3CCCCN3S(=O)(=O)c3cccc(C(F)(F)F)c3)CC2)CC1 (stereo not drawn) [Example 115, 1-(4-((3-fluorophenyl)(4-methylpiperazin-1-yl)methyl)piperidin-1-yl)-2-(1-(3-(trifluoromethyl)phenylsulfonyl)piperidin-2-yl)ethanone]",inhibition at 1 µM,[1],11%
same,inhibition at 10 µM,[2],87%
same,inhibition at 10 µM,[3],52%
"Cc1cc(S(=O)(=O)N2CCCCC2CCC(=O)N2CCC(C(c3cccc(F)c3)N3CCN(C)CC3)CC2)c(C)cc1Cl (stereo not drawn) [Example 120, 3-(1-(4-chloro-2,5-dimethylphenylsulfonyl)piperidin-2-yl)-1-(4-((3-fluorophenyl)(4-methylpiperazin-1-yl)methyl)piperidin-1-yl)propan-1-one]",inhibition at 1 µM,[1],41%
same,inhibition at 10 µM,[2],105%
same,inhibition at 10 µM,[3],73%
"O=C(CC1C(=O)NCCN1S(=O)(=O)c1ccc(Cl)cc1Cl)NCC1CCC(C(c2ccccc2)N2CCOCC2)CC1 (stereo not drawn) [Example 55, 2-[1-(2,4-dichloro-benzenesulfonyl)-3-oxo-piperazin-2-yl]-N-[4-(morpholin-4-yl-phenyl-methyl)-cyclohexylmethyl]-acetamide]",inhibition at 1 µM,[1],24%
same,inhibition at 10 µM,[2],103%
same,inhibition at 10 µM,[3],26%
"CN(C)C(c1ccccc1)C1CCC(CNC(=O)CCCCN(C)S(=O)(=O)c2c(Cl)cc(Cl)cc2Cl)CC1 (stereo not drawn) [Example 7, N—((4-((Dimethylamino)(phenyl)methyl)cyclohexyl)methyl)-5-(2,4,6-trichloro-N -methylphenylsulfonamido)pentanamide]",inhibition at 1 µM,[1],96%
same,inhibition at 10 µM,[2],102%
same,inhibition at 10 µM,[3],59%
"CN1CCN(C(Cc2ccccc2)C2CCN(C(=O)CC3CCCCN3S(=O)(=O)c3cccc(C(F)(F)F)c3)CC2)CC1 (stereo not drawn) [Example 111, 1-(4-(1-(4-methylpiperazin-1-yl)-2-phenylethyl)piperidin-1-yl)-2-(1-(3-(trifluoromethyl)phenylsulfonyl)piperidin-2-yl)ethanone]",inhibition at 1 µM,[1],-2%
same,inhibition at 10 µM,[2],94%
same,inhibition at 10 µM,[3],61%
"O=C(CC1CCCCN1S(=O)(=O)c1ccc(Cl)c(Cl)c1)NC1CCC(C(c2ccccc2)N2CCCC2)CC1 (stereo not drawn) [Example 107, 2-(1-(3,4-dichlorophenylsulfonyl)piperidin-2-yl)-N-(4-(phenyl(pyrrolidin-1-yl)methyl)cyclohexyl)acetamide]",inhibition at 1 µM,[1],78%
same,inhibition at 10 µM,[2],102%
same,inhibition at 10 µM,[3],26%
"O=C(CC1C(=O)Nc2ccccc2N1S(=O)(=O)c1ccc(Cl)c(Cl)c1)NCC1CCC(C(CCc2ccccc2)N2CCCC2)CC1 (stereo not drawn) [Example 66, 2-[1-(3,4-dichloro-benzenesulfonyl)-3-oxo-1,2,3,4-tetrahydro-quinoxalin-2-yl]-N-[4-(3-phenyl-1-pyrrolidin-1-yl-propyl)-cyclohexylmethyl]-acetamide]",inhibition at 1 µM,[1],11%
same,inhibition at 10 µM,[2],102%
same,inhibition at 10 µM,[3],96%
"O=C(CC1C(=O)Nc2ccccc2N1S(=O)(=O)c1ccc(Cl)c(Cl)c1)NCC1CCC(C(CCc2ccccc2)N2CCOCC2)CC1 (stereo not drawn) [Example 65, 2-[1-(3,4-dichloro-benzenesulfonyl)-3-oxo-1,2,3,4-tetrahydro-quinoxalin-2-yl]-N-[4-(1-morpholin-4-yl-3-phenyl-propyl)-cyclohexylmethyl]-acetamide]",inhibition at 1 µM,[1],9%
same,inhibition at 10 µM,[2],103%
same,inhibition at 10 µM,[3],24%
"CN1CCN(C(c2ccccc2)C2CCC(NC(=O)CC3CCCN3S(=O)(=O)c3ccc(Cl)c(Cl)c3)CC2)CC1 (stereo not drawn) [Example 79, 2-[1-(3,4-dichloro-benzenesulfonyl)-pyrrolidin-2-yl]-N-{4-[(4-methyl-piperazin-1-yl)-phenyl-methyl]-cyclohexyl}-acetamide]",inhibition at 1 µM,[1],47%
same,inhibition at 10 µM,[2],96.8%
same,inhibition at 10 µM,[3],33%
